Test results published in PMC11979685, “Synthesis of Derivatives of the Antibiotic Albicidin: The N‐Terminal Fragment as Key to Control Potency and Resistance Mediated by the Binding Protein AlbA” (Chemistry (Weinheim an Der Bergstrasse, Germany), 2025).
≈ marks a conversion by molar mass, not a printed value.

Tests used:
[1] = Reverse-phase HPLC retention time as estimate of lipophilicity; format: physicochemical; details: indicator of lipophilicity
Source text: As mentioned before, albicidin 1 is a rather hydrophobic compound and improving its aqueous solubility is desirable. The lipophilicity of drug molecules is commonly characterized by the octanol/water partition coefficient (logP). An alternative approach relies on the correlation between lipophilicity and the retention time (Rt) on a reverse‐phase HPLC column.[31] This approach works well if structurally related compounds are compared as is the case for this SAR study. Rt was thus used to estimate the hydrophilicity of albicidin 1 and its derivatives 2–24 (Table 1).[32]

[2] = test system: Mycobacterium phlei DSM 750; experiment: MIC determination (broth microdilution); format: cell-based; details: Mycolicibacterium phlei, DSM750; read-out: MIC M. phlei
Method: (§1) After completing the syntheses, the antibacterial activity of A‐variations 4–24 was assessed by determination of MIC values against a basic set of gram‐negative and gram‐positive bacteria (Table 1). The monocyclic derivatives 4–8 featuring a cyano‐, trifluoromethyl‐, methoxy‐ and fluoro‐ substituent in para‐position were very active against the gram–negative E. coli and S. typhimurium strains with MIC values in the same range as 3rd Gen albicidin 3 or ciprofloxacin which is the gold standard for gyrase inhibitors. […] These findings are in agreement with previous studies showing good activities for cyano, trifluoromethyl, methoxy and fluoro substituents in the para‐position of different aromatic rings in the building block A.[12, 13] The activity of the monocyclic derivatives 4–8 against the gram‐positive strains B. subtilis and M. luteus were similar but slightly less pronounced compared to the lead structure 3.
(§2) 1.1 Determination of Minimal Inhibitory Concentrations (MIC)
(§3) Minimal inhibitory concentration (MIC) against selected bacterial strains values were determined according to the ninth edition of the Approved Standard M07-A9.[1] 20 μL of cryo stocks of bacterial strains were suspended in 20 mL LB medium (Lysogeny broth: 10 g/L peptone, 5 g/L yeast extract, 5 g/L NaCl). Following incubation overnight at 37°C, 200 rpm, the test inoculum was adjusted by 0.5 McFarland Standard in cation adjusted Mueller-Hinton broth (BBLTM Mueller-Hinton Broth II, Becton, Dickinson and Company, New Jersey, USA) to approximately 1x10^6 CFU mL-1. 95 μL of the bacterial inoculum were applied per well of a 96-well plate. Albicidin and albicidin derivatives 3−24 were dissolved in DMSO (100%) to an initial concentration of 2560 μg/mL and serially diluted in DMSO (100%). Initial solution and serial dilutions of Ciprofloxacin were prepared in 0.1 N HCL, respectively. 5 μL of each antibiotic dilution were added to the microdilution tray to reach albicidin concentrations of 128 μg/mL to 0.016 μg/mL per well. One row of each well plate served as a growth control without antibiotic substances and another row of the microdilution tray served as sterility control (only MHB II - media). The antimicrobial effect of the solvent (DMSO) was tested by adding 5 μL DMSO to several wells. Purity check and cell titer control were performed according to International S tandard M07-A9 on Mueller-Hinton II Agar (Mueller Hinton II Broth, 15 g/L agar-agar). Both microdilution trays and agar plates were incubated at 30−37°C for 16 h and subsequently analyzed for growth inhibition by naked eye. The following primary panel of microorganisms were purchased from German Collection of Microorganisms and Cell Cultures (DSMZ):
(§4) Escherichia coli DSM 1116
(§5) Micrococcus luteus DSM 1790
(§6) Mycobacterium phlei DSM 750
(§7) Salmonella typhimurium TA100 was kindly provided by Prof. Dr. Vera Meyer (Technische Universität Berlin). […]
(§8) was purchased as part of the single gene knockout library of E. coli K12 BW25113 (Keio collection) from Horizon Discovery group plc (Cambridge, UK).

[3] = test system: Salmonella typhimurium TA100; experiment: MIC determination (broth microdilution); format: cell-based; details: Salmonella enterica, read-out: MIC S. typh.
Method: as §1, §2, §3, §4, §5, §6, §7, §8

E. coli DSM1116 = experiment: MIC determination (broth microdilution); format: cell-based; details: Escherichia coli, DSM1116; read-out: MIC E. coli DSM1116
Method: as §1, §2, §3, §4, §5, §6, §7, §8

[4] = test system: Micrococcus luteus DSM 1790; experiment: MIC determination (broth microdilution); format: cell-based; details: DSM1790, read-out: MIC M. luteus
Method: as §1, §2, §3, §4, §5, §6, §7, §8

E. coli BW25113 = experiment: MIC determination (broth microdilution); format: cell-based; details: Escherichia coli, BW25113; read-out: MIC E. coli BW25113
Method: as §1, §2, §3, §4, §5, §6, §7, §8

Bacillus subtilis DSM 10 = experiment: MIC determination (broth microdilution); format: cell-based; details: DSM10, read-out: MIC B. sub.
Method: as §1, §2, §3, §4, §5, §6, §7, §8

E. coli = experiment: MIC against E. coli in presence of 50 % human serum; format: cell-based; details: Escherichia coli; E. coli in presence of 50 % human serum; read-out: MICEc 50%HS
E. coli DNA gyrase = E. coli DNA gyrase (Escherichia coli, UniProt P0AES4); experiment: E. coli gyrase DNA cleavage assay; format: biochemical; parameters: key to Gyrase inhibition strong+ / weak −: + strong inhibition; − weak inhibition in comparison to compound 16; details: qualitative DNA cleavage assay at 1 μM and 10 μM, in comparison to compound 16
Method: The target activity of the synthesized derivatives was investigated using a DNA cleavage assay with purified and enzymatically active E. coli DNA gyrase[8] (see SI). In this assay, albicidin‐stabilized complexes of gyrase and plasmid DNA are trapped, and subsequently denatured and deproteinated to reveal DNA linearized by gyrase. […] For the best performing compounds, which were able to fully stabilize the cleavage complex at a concentration of 1 μM, the concentrations at half‐maximum cleavage (CC50) were determined (Figure 3).
1.2 Escherichia coli Gyrase Cleavage Inhibition Assay
E. coli gyrase cleavage assays were executed by setting up a master mix including 0.25 µg relaxed plasmid (pBR322) in 35 mM Tris-HCl (pH 7.5), 24 mM KCl, 4 mM MgCl2, 2 mM dithithreitol (DTT), 1.8 mM spermidine, 1 mM ATP, 6.5% (wt/vol) glycerol and 0.1 mg/ml bovine serum albumin per reaction.
Of this stock solution, 13.2 µL was aliquoted for each reaction into 1.5 mL Eppendorf tubes and supplemented with 0.3 µL of the appropriate compound dilution or DMSO with a […] DMSO concentration of 2% per reaction. The reactions were started with 1.5 µL of 50 nM (pre-screening) or 40 nM (IC50 determinations) wt E. coli gyrase in dilution buffer (50 mM Tris-HCl (pH 7.5), 100 mM KCl, 2 mM DTT, 1 mM EDTA, and 50% (wt/vol) glycerol) for a […] volume of 15 µL. Reactions were incubated at 37°C for 30 minutes before addition of 1.5 µL 0.2% (wt/vol) SDS and 0.75 µL proteinase K (0.2 mg/mL) and further incubation at 37°C for 30 minutes to trap cleavage complexes. Reactions were stopped with 15 µL chloroform:isoamyl alcohol (24: 1 v/v) and 15 µL of STEB (40% (wt/vol) sucrose, […] Tris-Cl pH 8, 10 mM EDTA, 0.5 mg/mL bromophenol blue). After brief vortexing and centrifugation at 2,300g for 5 min, 15 µL of the aqueous phase was loaded onto 1% (wt/vol) agarose in TAE (Tris-acetate […] and EDTA […]) gels supplemented with 10 µg/mL ethidium bromide.
The gels were run at 85 V for 2 hours.
DNA was visualized (602/50, UV Trans, auto optimal exposure) with a ChemiDoc MP (Bio-Rad Laboratories Inc., equipped with ImageLab Touch Software v2.0.0.27) and the percentage of cleaved DNA relative to the total amount of DNA per lane was determined with ImageJ software.[2] IC50 curves were generated in GraphPad Prism (v10.0.0) using the non-linear regression curve fit variable slope with four parameters and least squares regression.

Chain of E. coli DNA gyrase (P0AES4 whole entry): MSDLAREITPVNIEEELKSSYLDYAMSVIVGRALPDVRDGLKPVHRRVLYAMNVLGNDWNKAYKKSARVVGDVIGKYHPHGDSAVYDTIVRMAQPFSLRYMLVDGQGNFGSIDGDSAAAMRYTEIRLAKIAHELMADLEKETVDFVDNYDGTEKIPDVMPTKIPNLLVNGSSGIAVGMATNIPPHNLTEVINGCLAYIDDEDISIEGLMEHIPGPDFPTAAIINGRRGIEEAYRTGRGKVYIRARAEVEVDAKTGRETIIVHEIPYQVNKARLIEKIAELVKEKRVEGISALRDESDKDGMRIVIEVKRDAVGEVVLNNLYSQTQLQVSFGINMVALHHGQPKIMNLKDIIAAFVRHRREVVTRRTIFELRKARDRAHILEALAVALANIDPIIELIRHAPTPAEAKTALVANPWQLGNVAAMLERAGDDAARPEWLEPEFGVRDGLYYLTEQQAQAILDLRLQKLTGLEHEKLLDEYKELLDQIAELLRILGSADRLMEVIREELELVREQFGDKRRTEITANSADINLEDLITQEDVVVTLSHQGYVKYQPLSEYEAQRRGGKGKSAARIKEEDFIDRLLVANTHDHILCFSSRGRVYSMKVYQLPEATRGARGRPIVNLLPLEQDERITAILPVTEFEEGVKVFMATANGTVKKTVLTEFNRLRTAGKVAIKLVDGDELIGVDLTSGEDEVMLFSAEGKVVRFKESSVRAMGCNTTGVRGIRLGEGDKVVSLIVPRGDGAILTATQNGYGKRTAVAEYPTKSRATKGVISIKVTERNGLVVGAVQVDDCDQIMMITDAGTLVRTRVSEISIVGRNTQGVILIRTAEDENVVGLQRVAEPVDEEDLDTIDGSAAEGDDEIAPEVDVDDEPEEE

SMILES | Rt (retention time) [1] | MIC [2] | MIC [3] | MIC (E. coli DSM1116) | MIC [4] | MIC (E. coli BW25113) | MIC (Bacillus subtilis DSM 10) | MIC (E. coli) | Gyrase inhibition strong+ / weak − (E. coli DNA gyrase)
COc1c(NC(=O)c2ccc(NC(=O)c3ccc(NC(=O)[C@H](Cc4c[nH]nn4)NC(=O)c4ccc(NC(=O)c5ccc(C(F)(F)F)cc5)cc4)cn3)c(OC)c2O)ccc(C(=O)O)c1O [compound 5] | 8.99 min | 1 µg/mL (≈ 1.11 µM) | ≤ 0.016 µg/mL | 0.016 µg/mL (≈ 0.0178 µM) | 0.5 µg/mL (≈ 0.557 µM) | 0.063 µg/mL (≈ 0.0702 µM) | 0.125 µg/mL (≈ 0.139 µM) | 4 µg/mL | −
COc1ccc(C(=O)Nc2ccc(C(=O)N[C@@H](Cc3c[nH]nn3)C(=O)Nc3ccc(C(=O)Nc4ccc(C(=O)Nc5ccc(C(=O)O)c(O)c5OC)c(O)c4OC)nc3)cc2)nc1 [compound 6] | 8.29 min | 2 µg/mL (≈ 2.32 µM) | ≤ 0.016 µg/mL | 0.031 µg/mL (≈ 0.036 µM) | 0.125 µg/mL (≈ 0.145 µM) | ≤ 0.016 µg/mL | 0.125 µg/mL (≈ 0.145 µM) | 2 µg/mL | +
COc1c(NC(=O)c2ccc(NC(=O)c3ccc(NC(=O)[C@H](Cc4c[nH]nn4)NC(=O)c4ccc(NC(=O)c5ccc6nccnc6c5)cc4)cn3)c(OC)c2O)ccc(C(=O)O)c1O [compound 15] | 7.71 min | 2 µg/mL (≈ 2.27 µM) |  | 0.031 µg/mL (≈ 0.0352 µM) | 0.25 µg/mL (≈ 0.284 µM) | 0.031 µg/mL (≈ 0.0352 µM) | 0.125 µg/mL (≈ 0.142 µM) |  | +
